Results: patent US20110124740A1, “NOVEL DIARYL HEPATONOID-BASED COMPOUNDS AND USE THEREOF” (priority 2008, published 2011)
Like-named read-outs stand apart in the source and are kept apart here.

Experiments:
[1] = test system: avian influenza virus KBNP-0028 (KCTC 10866BP); assay type: cell-based, A/chicken/Korea/SNU0028/2000(H9N2)
[2] = test system: CEF (chicken embryo fibroblasts)

O=C(CCc1ccc(O)c(O)c1)C[C@H](O)CCc1ccc(O)c(O)c1 [12B-AJ-15A, (5R)-1,7-bis(3,4-dihydroxyphenyl)-5-hydroxyheptane-3-one]
Antiviral activity (in words) [1]: had antiviral activity
Number of wells wherein hemagglutination occurs (among 6 wells) ([1]; 12.5 μg/mL): 3
Number of wells wherein hemagglutination occurs (among 6 wells) ([1]; 25 μg/mL): 3
Number of wells wherein hemagglutination occurs (among 6 wells) ([1]; 50 μg/mL): 3
Number of wells wherein hemagglutination occurs (among 6 wells) ([1]; 100 μg/mL): 3
Cytotoxicity (in words) [2]: no cytotoxicity
Cytotoxicity (MTT assay value) ([2]; 6.25 μg/mL): 0.457
Cytotoxicity (MTT assay value) ([2]; 12.5 μg/mL): 0.369
Cytotoxicity (MTT assay value) ([2]; 25 μg/mL): 0.320
Cytotoxicity (MTT assay value) ([2]; 50 μg/mL): 0.369
Cytotoxicity (MTT assay value) ([2]; 100 μg/mL): 0.423
Cytotoxicity (MTT assay value) ([2]; 200 μg/mL): 0.538
